Among the data in patent US9321756B2, “Azole compounds as PIM inhibitors” (priority 2011, dated 2016) are IC50 values, retold here.

Experiment [1] deals with full length recombinant Pim-1 (Homo sapiens (Human), UniProt P11309). The experiment is described as follows: Pim enzyme assay (HTRF, phosphorylation of biotinylated-BAD (S112) peptide), Pim-1. The format is biochemical. The following applies: Pim-1 enzyme assay; read-out: Pim_1_IC50.
Experiment [2] concerns the target full length recombinant Pim-2 (Homo sapiens (Human), UniProt Q9P1W9). As to the kind of experiment: Pim enzyme assay (HTRF, phosphorylation of biotinylated-BAD (S112) peptide), Pim-2. The following applies: read-out: Pim2_IC50. The format is biochemical. On the technique in general: In TR-FRET formats the signal depends on donor and acceptor labels being close together.

In experiment [3] the target is full length recombinant Pim-3 (Homo sapiens (Human), UniProt Q86V86). The experiment is described as follows: Pim enzyme assay (HTRF, phosphorylation of biotinylated-BAD (S112) peptide), Pim-3. In kind it is biochemical. The following applies: read-out: Pim3 IC50. An outline of the steps: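 IC50 values were fitted with a 4-parameter logistic model to percent-of-control HTRF signal (Eu anti-phospho-BAD S112 antibody/streptavidin-APC). Reactions used full-length Pim-3 and biotin-BAD (S112) peptide, ran 1 h 30 min at RT (22 °C) in Hepes pH 7.0 buffer with BSA and DTT, and were stopped by 3 mM EDTA.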

In experiment [4] the test system is Pim-1 stably transfected U2OS human osteogenic sarcoma line. As to the kind of experiment: Pim cell assay U2OS (phospho-BAD normalized against total BAD), Pim-1 transfected. In kind it is cell-based. The following applies: Homo sapiens. As for the experimental part:
(§1) The cell lines used in the assay were generated by the stable transfection of either Pim-1 or Pim-2 into the U2OS human osteogenic sarcoma line. The assay for determination of the Pim activity in the engineered U2OS cell lines measures levels of phospho-BAD normalized against total BAD protein levels. It was conducted as follows:
(§2) The adherent cells were dissociated from the flasks using non-enzymatic cell dissociation solution (Sigma #C5914). […] The cells were then incubated overnight at 37° C., 5% CO2.
(§3) In addition to the 10-point dosing curve of the test compound, DMSO alone was run as the high control.
(§4) This dilution in DMSO was then diluted again into cell growth medium. Aliquots (12 μL) of the compound diluted in growth medium were then transferred to the appropriate wells of the 96-well plates containing cells to a final DMSO concentration of 0.3%. The cell plates were then incubated with compound for 29 min at 37° C., 5% CO2.
(§5) The cell plates containing lysis buffer were then immediately stored at −70° C.
(§6) These prepared lysates were then assayed for phospho and total BAD according to the manufacturer's protocols (Meso Scale Diagnostics, Cat#K15103C-3 & #K15103D-3). The plates were read on the MSD Sector Imager 6000, and results were calculated according to the assay protocols ((% Phosphoprotein=((2×Phospho signal)/(Phospho signal+Total signal))×100)).

Experiment [5] concerns Pim-2 stably transfected U2OS human osteogenic sarcoma line. The experiment is described as follows: Pim cell assay U2OS (phospho-BAD normalized against total BAD), Pim-2 transfected. Particulars: Homo sapiens; U2OS cells, Pim-2 transfected; read-out: U2OS Pim2_Cell_IC50. In kind it is cell-based. As for the experimental part:
as §1, §2, §3, §4, §5, §6

Setting [6] is: U2OS, read-out: U2OS Pim1_Cell_IC50, U2OS cells, Pim-1 transfected.
[7] abbreviates: U2OS, read-out: U2OS Pim1_Cell_IC50.

Each structure is given as a SMILES string. pIC50: −log10 of the molar value. Read-outs that look alike come from different tables or passages of the source. A value given as a limit tells only on which side of the number the result lay.

Chain of full length recombinant Pim-1 (P11309 whole entry): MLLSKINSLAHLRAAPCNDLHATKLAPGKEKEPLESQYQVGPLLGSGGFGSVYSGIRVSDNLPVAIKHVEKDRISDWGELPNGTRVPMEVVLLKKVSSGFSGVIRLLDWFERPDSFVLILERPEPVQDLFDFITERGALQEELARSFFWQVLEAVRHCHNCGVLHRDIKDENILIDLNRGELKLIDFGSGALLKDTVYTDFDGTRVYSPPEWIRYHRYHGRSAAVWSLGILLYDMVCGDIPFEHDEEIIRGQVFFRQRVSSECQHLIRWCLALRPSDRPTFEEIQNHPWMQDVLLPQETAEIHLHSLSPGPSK
Chain of full length recombinant Pim-2 (Q9P1W9 whole entry): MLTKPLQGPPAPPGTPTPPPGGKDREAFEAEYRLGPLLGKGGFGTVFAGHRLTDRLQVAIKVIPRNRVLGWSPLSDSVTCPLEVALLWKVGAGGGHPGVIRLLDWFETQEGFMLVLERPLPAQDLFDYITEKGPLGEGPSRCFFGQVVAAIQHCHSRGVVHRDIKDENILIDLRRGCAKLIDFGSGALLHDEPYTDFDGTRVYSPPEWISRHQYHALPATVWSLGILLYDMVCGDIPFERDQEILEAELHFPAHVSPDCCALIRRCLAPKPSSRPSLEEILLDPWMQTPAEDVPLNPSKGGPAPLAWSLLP

Turning to `Nc1nnc(-c2ccc3[nH]cc(-c4cccc(N5CCOCC5)n4)c3c2)o1` [Example 6, 5-(3-(6-morpholinopyridin-2-yl)-1H-indol-5-yl)-1,3,4-oxadiazol-2-amine], the pIC50 in experiment [1] was 8.23; in experiment [2] (Pim-2 enzyme assay) it was 7.68; in experiment [3] (Pim-3 enzyme assay) it was 8.24; in experiment [4] (setting [6]), 7.21; in experiment [5] it was 5.68.
On to `Nc1nnc(-c2ccc3[nH]cc(-c4ccc5cn[nH]c5c4)c3c2)s1` [Example 171, 5-(3-(1H-indazol-6-yl)-1H-indol-5-yl)-1,3,4-thiadiazol-2-amine], for which the pIC50 in experiment [1] was 7.44; in experiment [2] (Pim-2 enzyme assay), 7.23; in experiment [3] (Pim-3 enzyme assay), 7.86; in experiment [4] (setting [6]), 5.58; in experiment [5], below 4.50.
Take `C[C@H]1COCCN1c1ccnc(-c2c[nH]c3ccc(-c4nnc(N)o4)cc23)n1` [Example 91, 5-(3-(4-((3S)-3-methyl-4-morpholinyl)-2-pyrimidinyl)-1H-indol-5-yl)-1,3,4-oxadiazol-2-amine]: the pIC50 was 8.71 in experiment [1]; 8.97 in experiment [2] (Pim-2 enzyme assay); 8.66 in experiment [3] (Pim-3 enzyme assay); 6.66 in experiment [4] (setting [7]); 5.98 in experiment [5].
The corresponding values for `CNc1nnc(-c2ccc3[nH]cc(-c4ccccc4F)c3c2)s1` [Example 235, 5-(3-(2-fluorophenyl)-1H-indol-5-yl)-N-methyl-1,3,4-thiadiazol-2-amine] are 6.64, 6.11, 7.20, 5.27 and below 4.50.
For `Nc1nnc(-c2ccc3[nH]cc(-c4cccc(OC5CCCC5)n4)c3c2)s1` [Example 163, 5-(3-(6-(cyclopentyloxy)-2-pyridinyl)-1H-indol-5-yl)-1,3,4-thiadiazol-2-amine], the pIC50 is 7.83 in experiment [1]; 8.34 in experiment [3] (Pim-3 enzyme assay); 6.32 in experiment [4] (U2OS cells, Pim-1 transfected, read-out: U2OS Pim1_Cell_IC50); 5.16 in experiment [5].
`Nc1nnc(-c2ccc3[nH]cc(-c4cccc(N5CCOCC5)n4)c3c2)s1` [Example 24, 5-(3-(6-morpholinopyridin-2-yl)-1H-indol-5-yl)-1,3,4-thiadiazol-2-amine]: the pIC50 in experiment [2] (Pim-2 enzyme assay) was 7.23; in experiment [3] (Pim-3 enzyme assay) it was 8.25; in experiment [4] (setting [6]) it was 6.63; in experiment [5], 5.12.
Consider `Nc1nnc(-c2ccc3[nH]cc(-c4cncc(N5CCC(F)(F)CC5)n4)c3c2)o1` [Example 2, 5-(3-(6-(4,4-difluoropiperidin-1-yl)pyrazin-2-yl)-1H-indol-5-yl)-1,3,4-oxadiazol-2-amine], for which the pIC50 is 8.71 in experiment [1], 8.97 in experiment [3] (Pim-3 enzyme assay), 7.53 in experiment [4] (setting [6]) and 6.38 in experiment [5].
In the case of `CC(C)Oc1cccc(-c2c[nH]c3ccc(-c4nnc(NC5CCCNC5)s4)cc23)n1` (stereo not shown) [Example 32, 5-(3-(6-Isopropoxypyridin-2-yl)-1H-indol-5-yl)-N-(piperidin-3-yl)-1,3,4-thiadiazol-2-amine 2,2,2-trifluoroacetate], the pIC50 in experiment [3] is 8.46; in experiment [4] (setting [6]), 6.24; in experiment [5] it was 5.16.
`CC(C)Oc1cccc(-c2c[nH]c3ccc(-c4nnc(N[C@@H]5CCCNC5)s4)cc23)n1` [Example 35, (R)-5-(3-(6-Isopropoxypyridin-2-yl)-1H-indol-5-yl)-N-(piperidin-3-yl)-1,3,4-thiadiazol-2-amine 2,2,2-trifluoroacetate]: the pIC50 in experiment [1] was 8.03; in experiment [3], 8.74; in experiment [4] (setting [6]), 5.94; in experiment [5], 4.96.
Turning to `Nc1nnc(-c2ccc3[nH]cc(-c4nccc(-c5ccccc5F)n4)c3c2)o1` [Example 123, 5-(3-(4-(2-fluorophenyl)-2-pyrimidinyl)-1H-indol-5-yl)-1,3,4-oxadiazol-2-amine], the pIC50 in experiment [1] is 7.97; in experiment [3] (Pim-3 enzyme assay), 8.30; in experiment [4] (setting [6]), 6.83; in experiment [5], 5.87.
The corresponding values for `Oc1nnc(-c2ccc3[nH]cc(-c4cccc(N5CCOCC5)n4)c3c2)s1` [Example 29, 5-(3-(6-morpholinopyridin-2-yl)-1H-indol-5-yl)-1,3,4-thiadiazol-2-ol] are 6.92, 7.54, 5.16 and below 4.50.
As to `Nc1nnc(-c2ccc3[nH]cc(-c4cncc(-c5ccc(Cl)cc5)n4)c3c2)o1` [Example 114, 5-(3-(6-(4-chlorophenyl)-2-pyrazinyl)-1H-indol-5-yl)-1,3,4-oxadiazol-2-amine], the pIC50 was 7.90 in experiment [1], 7.60 in experiment [2] (Pim-2 enzyme assay), 6.86 in experiment [4] (setting [6]) and below 4.50 in experiment [5].
For `Nc1nnc(-c2ccc3[nH]cc(-c4cncc(NC5CCCCC5)n4)c3c2)s1` [Example 208, 6-(5-(5-amino-1,3,4-thiadiazol-2-yl)-1H-indol-3-yl)-N-cyclohexyl-2-pyrazinamine], in that order: 8.50, 7.74, 7.25 and 5.58.
On to `CN1CCCC(Oc2ccnc(-c3c[nH]c4ccc(-c5nnc(N)o5)cc34)n2)C1` (stereo not shown) [Example 112, 5-(3-(4-((1-methyl-3-piperidinyl)oxy)-2-pyrimidinyl)-1H-indol-5-yl)-1,3,4-oxadiazol-2-amine], for which the pIC50 in experiment [1] is 8.24; in experiment [2] (Pim-2 enzyme assay), 8.54; in experiment [4] (setting [7]), 6.75; in experiment [5], 5.93.
As to `c1cc2[nH]cc(-c3cncc(C4CC4)n3)c2cc1-c1nnc(C2CC2)o1` [Example 44, 2-Cyclopropyl-5-(3-(6-cyclopropylpyrazin-2-yl)-1H-indol-5-yl)-1,3,4-oxadiazole], the pIC50 in experiment [1] was 8.00; in experiment [2] (Pim-2 enzyme assay) it was 7.58; in experiment [4] (setting [7]) it was 6.20; in experiment [5], below 4.50.
On to `Nc1nnc(-c2ccc3[nH]cc(-c4cccc(OC5CCC5)n4)c3c2)s1` [Example 161, 5-(3-(6-(cyclobutyloxy)-2-pyridinyl)-1H-indol-5-yl)-1,3,4-thiadiazol-2-amine], for which the pIC50 in experiment [1] was 7.96; in experiment [3] (Pim-3 enzyme assay) it was 8.53; in experiment [4] (setting [6]) it was 6.69; in experiment [5] it was 5.46.
The corresponding values for `c1cc(C2CC2)nc(-c2c[nH]c3ccc(-c4nnc(NC5COC5)o4)cc23)n1` [Example 256, 5-(3-(4-cyclopropyl-2-pyrimidinyl)-1H-indol-5-yl)-N-3-oxetanyl-1,3,4-oxadiazol-2-amine] are 8.11, 8.92, 7.17 and 6.13.
As to `CC(C)Oc1cccc(-c2c[nH]c3ccc(-c4nnc(N)s4)cc23)n1` [Example 157, 5-(3-(6-(1-methylethoxy)-2-pyridinyl)-1H-indol-5-yl)-1,3,4-thiadiazol-2-amine], the pIC50 in experiment [1] is 8.11; in experiment [2] (Pim-2 enzyme assay), 8.00; in experiment [4] (setting [7]), 6.97; in experiment [5], 5.65.
On to `CNc1nnc(-c2ccc3[nH]cc(-c4csc(-n5cnc(C)c5)n4)c3c2)s1` [Example 233, N-methyl-5-(3-(2-(4-methyl-1H-imidazol-1-yl)-1,3-thiazol-4-yl)-1H-indol-5-yl)-1,3,4-thiadiazol-2-amine], for which the pIC50 in experiment [1] was 7.00; in experiment [3] (Pim-3 enzyme assay), 7.55; in experiment [4] (setting [6]), 5.85; in experiment [5], below 4.50.
Take `CC(C)Nc1nnc(-c2ccc3[nH]cc(-c4nccc(C(F)(F)F)n4)c3c2)o1` [Example 258, N-(1-methylethyl)-5-(3-(4-(trifluoromethyl)-2-pyrimidinyl)-1H-indol-5-yl)-1,3,4-oxadiazol-2-amine]: the pIC50 was 7.86 in experiment [1], 7.60 in experiment [2] (Pim-2 enzyme assay), 6.64 in experiment [4] (setting [7]) and 5.43 in experiment [5].
For `Nc1nnc(-c2ccc3[nH]cc(-c4nccc(OCC(F)(F)F)n4)c3c2)o1` [Example 110, 5-(3-(4-(2,2,2-trifluoroethoxy)-2-pyrimidinyl)-1H-indol-5-yl)-1,3,4-oxadiazol-2-amine], in that order: 8.33, 8.62, 6.66 and 5.79.
Consider `CNc1nnc(-c2ccc3[nH]cc(-c4cccc(OC(C)C)n4)c3c2)o1` [Example 41, 5-(3-(6-isopropoxypyridin-2-yl)-1H-indol-5-yl)-N-methyl-1,3,4-oxadiazol-2-amine], for which the pIC50 is 8.19 in experiment [1], 7.71 in experiment [2], 6.91 in experiment [4] (setting [6]) and 5.88 in experiment [5].
